# In patent US5708005A, “Quinolines, their production and use” (priority 1995, dated 1998):
# Columns and labels:
# [1] = target: melatonin receptor; experiment: Action of inhibiting 2-[^125 I]iodomelatonin binding (forebrain membrane sample); design: species or system 7-days-old chicken (white leghorn); conditions: 80 pM 2-[^125 I]iodomelatonin, chicken forebrain membranes, 90 minutes at 25° C., pH 7.7; non-specific binding with 10 μM melatonin; log-probit analysis; read-out: IC50 (50% inhibiting concentration), inhibition of 2-[^125 I]iodomelatonin binding
# Description: Action of inhibiting 2-[^125 I]iodomelatonin binding
# The forebrains of 7-days-old chicken (white leghorn) were homogenized with ice-cold assay buffer (50 mM Tris-HCl, pH 7.7 at 25° C.) and centrifuged at 44,000×g for 10 minutes at 4° C. The pellet was washed once with the same buffer. For the assay, the frozen tissue pellet was thawed and homogenized with the assay buffer to make a protein concentration of 0.3-0.4 mg/ml. In this way, the membrane sample was prepared. The membrane sample was incubated with a test compound and a ligand (80 pM 2-[^125 I]iodomelatonin, about 100,000 dpm) in a total volume of 0.5 ml for 90 minutes at 25° C. The reaction was terminated by adding 3 ml of ice-cold assay buffer immediately followed by vacuum filtration on Whatman GF/B which was further washed twice with 3 ml of ice-cold assay buffer. The radioactivity on the filter was determined by means of γ-counter. […] The 50% inhibiting concentration (IC50) was determined by the log-probit analysis.
# [2] = test system: central nervous system; conditions: administered peripherally; Bioorganic & Medicinal Chemistry Letters, Vol. 4, p. 1485 (1994); cited from earlier work
# [3] = test system: metabolic enzymes; conditions: Rinsho Kensa, Vol. 38, No. 11 (1994); cited from earlier work
IC50 [1] [nM],SMILES,activity on central nervous system [2],metabolism by metabolic enzymes in a living body [3]
8.4,"COc1ccc2nc(Cl)cc(CCNC(C)=O)c2c1 [Working Example 1, N-[2-(2-chloro-6-methoxyquinolin-4-yl)ethyl]acetamide]",,
8.9,COc1ccc2nc(Cl)cc(CCNC(=O)C(F)(F)F)c2c1 [compound 3],,
,"COc1ccc2[nH]cc(CCNC(C)=O)c2c1 [melatonin, N-acetyl-5-methoxytryptamine]",inactive,readily metabolized
